From PubChem BioAssay AID504926 (NMMLSC, 2011)
Calls of active or inactive are those of the source.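 The calls were made as follows: active = compounds cutting yeast counts by over 60% at top dose, with positive span-based score; inactive = the rest.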

What follows are compounds tested on S. cerevisiae growth, flow cytometry event count, 7 d (assay: S. cerevisiae cytotoxicity, flow cytometry event loss – powder samples, cytotoxicity control for yeast caloric restriction mimetic project, dose response (AID 504926)). Settings: at 100 µM; active compounds read high.

Row | Compound | event count decrease
1 | Cn1c(=O)[nH]c2nncnc2c1=O | 24% (inactive)
2 | CCN(CC)C(=O)CSc1nnc(-c2cccc(OC)c2)o1 | -66% (inactive)
3 | COc1ccc2nc3ccccc3nc2c1N | -32% (inactive)
4 | O=C(Nc1ccccc1)c1ccc2nccnc2c1 | -494% (inactive)
5 | Cn1c(O)c(C(=Nc2ccc(F)cc2)c2ccccc2Cl)c(=O)n(C)c1=O | -114% (inactive)
6 | O=C(O)c1cnc2ccccc2n1 | 7% (inactive)
7 | COc1ccc2nc3ccccc3nc2c1 | 35% (inactive)
8 | O=C(c1cccc2nccnc12)N1CCOc2ccccc21 | -51% (inactive)
9 | O=C(c1cccc2nc3ccccc3nc12)N1CCOCC1 | -106% (inactive)
10 | O=C(Nc1ccc2nccnc2c1)NC1CCCCC1 | 8% (inactive)
11 | CCN(CC)C(=O)c1cccc2nc3ccccc3nc12 | -36% (inactive)
12 | N#CCc1nn(-c2ccccc2)c2ncnc(N)c12 | 31% (inactive)
13 | Cc1cc(C)cc(NC(=O)CN2CCN(c3ccccn3)CC2)c1 | 2% (inactive)
14 | O=C1c2c(O)ccc(O)c2C(=O)c2c(NCCNCCO)ccc(NCCNCCO)c21 | -180% (inactive)
15 | O=C(O)c1ccc2nccnc2c1 | 47% (inactive)
16 | CCN(CC)c1ccc2nc3ccc(N)cc3[n+](-c3ccccc3)c2c1 | -22% (inactive)
17 | CCC(=Nc1ccccc1O)C1=C(O)CC(c2ccccc2)CC1=O (stereo not drawn) | -11% (inactive)
18 | c1ccc2nc3ccccc3nc2c1 | 41% (inactive)
19 | CNc1ccc2nc3ccccc3[n+](C)c2c1 | 45% (inactive)
20 | CCCCCNC(=O)C(=O)C1C(=O)Nc2ccccc21 (stereo not drawn) | 66%
21 | O=C(CN1CCN(c2ccccn2)CC1)Nc1ccccc1F | -51% (inactive)
22 | COc1ccc2cc(C3CC(c4ccco4)=NN3S(=O)(=O)c3ccccc3)c(Cl)nc2c1 (stereo not drawn) | 26% (inactive)
23 | O=C(/C=C/c1cccs1)NC(=S)NNC(=O)Cc1cccs1 | 81%
24 | CC(C)(C)n1nc(-c2ccc(Cl)cc2)c2c(N)ncnc21 | -87% (inactive)
25 | CCN(CC)C(=O)c1ccc2nc3ccccc3nc2c1 | -99% (inactive)

Row | Compound | event count decrease
26 | Cc1cc(C)c2[nH]c3nc(SCC(=O)O)nnc3c2c1 | 16% (inactive)
27 | c1ccc2[nH]c3cc4ncnc4cc3nc2c1 | -129% (inactive)
28 | CC(C)CSc1nnc2c3ccccc3n(C)c2n1 | -5% (inactive)
29 | O=C(c1cccc2nccnc12)N1CCN(c2ccccc2F)CC1 | 55% (inactive)
30 | CN(C)CCNc1ncnc2c1cnn2-c1ccc(Cl)cc1 | 19% (inactive)
31 | CCc1nc(NC(C)(C)C)c2cnn(-c3ccccc3)c2n1 | 52% (inactive)
32 | O=C(NCc1ccccc1)c1ccc2nccnc2c1 | 80% (inactive)
33 | CCn1c2ccccc2c2n[nH]c(=S)nc21 | -35% (inactive)
34 | O=C(c1ccc2nccnc2c1)N1CCCCC1 | -141% (inactive)
35 | FC(F)(F)c1nc2cc3nc4ccccc4[nH]c3cc2n1 | -72% (inactive)
36 | C[n+]1c2ccccc2nc2ccc(NCCO)cc21 | 56% (inactive)
37 | O=c1[nH]c(O)c(C=Nc2ccc(F)c(Cl)c2)c(=O)[nH]1 | 27% (inactive)
38 | O=C(O)c1cccc2nccnc12 | -180% (inactive)
39 | Oc1cccc2nc3ccccc3nc12 | 69%
40 | CC(C)(C)NC(=O)Nc1ccc2nccnc2c1 | -56% (inactive)
41 | CC(C)(C)n1nc(-c2ccc(F)cc2)c2c(N)ncnc21 | -56% (inactive)
42 | C[C@@]12C(=O)OC(=O)[C@]1(C)C1CCC2O1 | 88%
43 | COc1ccc2c(c1)c1nnc(SC)nc1n2C | -72% (inactive)
44 | CC(C)OC(=O)CSc1nnc(-c2ccc(Cl)cc2Cl)o1 | 41% (inactive)
45 | O=C(Nc1cccc2nccnc12)c1ccccc1 | 16% (inactive)
46 | O=C(c1ccc2nccnc2c1)N1CCN(c2ccccc2)CC1 | -299% (inactive)
47 | CC(C)OC(=O)c1ccc2nc3ccccc3nc2c1 | 4% (inactive)
48 | Cc1ccc(-c2nn(C(C)(C)C)c3ncnc(N)c23)cc1 | -42% (inactive)
49 | C=CCSc1ccc(-c2ccc([N+](=O)[O-])cc2)o1 | 40% (inactive)
50 | O=C(/C=C/c1ccccc1)NC(=S)NNC(=O)Cc1cccs1 | 57% (inactive)

Row | Compound | event count decrease
51 | CN(C)C(=O)c1ccc2nccnc2c1 | -100% (inactive)
52 | O=C(Nc1ccc2nccnc2c1)c1cccc2nccnc12 | 95% (inactive)
53 | COc1ccc2nc3ccccc3nc2c1NC(=O)c1ccccc1Cl | 43% (inactive)
54 | C#CCSc1ccc(-c2ccc([N+](=O)[O-])cc2)o1 | 21% (inactive)
55 | COc1cccc2nc3cc(C)c(C)cc3nc12 | 56% (inactive)
56 | [O-][n+]1c2ccccc2[n+]([O-])c2cc(O)ccc21 | 15% (inactive)
57 | CSc1nnc(-c2ccc([N+](=O)[O-])cc2)o1 | 44% (inactive)
58 | CN1CCN(C(=O)c2ccc3nccnc3c2)CC1 | -332% (inactive)
59 | N#CC(c1nc2ccccc2nc1N1CCCC1)S(=O)(=O)c1ccccc1 (stereo not drawn) | 51% (inactive)
60 | C=CCOn1c(=O)c(-c2cccs2)[n+]([O-])c2ccccc21 | -43% (inactive)
61 | OCC[n+]1c2ccccc2nc2ccc(N3CCOCC3)cc21 | 19% (inactive)
62 | Cc1cc2nc3ccc(N(C)C)cc3nc2cc1N | -28% (inactive)
63 | Cc1ccccc1NC(=O)c1cccc2nc3ccccc3nc12 | -36% (inactive)
64 | O=C(OCc1c(F)cccc1Cl)c1cnc2ccccc2n1 | 53% (inactive)
65 | O=C(Nc1ccc2nccnc2c1)N1CCOCC1 | -21% (inactive)
66 | O=C(Nc1ccc2nccnc2c1)N1CCN(c2ccccc2)CC1 | -25% (inactive)
67 | Nc1ccc2nccnc2c1 | -19% (inactive)
68 | CC(=O)Nc1ccc2nc3ccccc3nc2c1 | 43% (inactive)
69 | Nc1cc2nc3ccccc3nc2cc1N | -45% (inactive)
70 | O=C(Nc1ccc2nc3ccccc3nc2c1)c1ccc(Br)cc1 | 68% (inactive)
71 | COc1ccc2nc3ccccc3[n+]([O-])c2c1 | 41% (inactive)
72 | O=C(Nc1cccc(Cl)c1)Nc1ccc2nccnc2c1 | -73% (inactive)
73 | CC(C)(C)Nc1ncnc2c1cnn2-c1ccccc1 | 18% (inactive)
